Source: US12162867B2, “Inhibitors of RNA helicase DHX9 and uses thereof” (ACCENT THERAPEUTICS, INC., priority 2022, dated 2024)

Tested on: circBRIP1 in HCT116 cells
Experiment: DHX9 circBRIP1 cellular target engagement SYBR Green assay (qPCR)
Format: cell-based
Conditions: Homo sapiens, HCT-116, circBRIP1, HCT116 cells; SyBr assay (marked ^+); read-out: DHX9 Cellular Target Engagement EC50

EC50 [µM]	SMILES
7.25	CS(=O)(=O)Nc1cc(Cl)cc(NC(=O)c2cc3ccncc3s2)c1 [Example 230]
1.39	CSc1ccc(-n2cc(C(=O)Nc3cc(Cl)cc(NS(C)(=O)=O)c3)cn2)nc1 [Example 218]
0.508	Cc1cc(C(=O)Nc2cc(Cl)cc(NS(C)(=O)=O)c2)cn1-c1ncc(F)cn1 [Example 207]
3.34	CS(=O)(=O)Nc1cc(Cl)cc(NC(=O)c2cc3c(Cl)cccc3s2)c1 [Example 332]
2.67	Cc1cc(C)c2cc(C(=O)Nc3cc(Cl)cc(NS(C)(=O)=O)c3)cn2c1 [Example 328]
0.122	CS(=O)(=O)Nc1cc(Cl)cc(NC(=O)c2cc(-c3ncccc3Cc3ncccn3)cs2)c1 [Example 384]
3.68	CS(=O)(=O)Nc1cc(Cl)cc(NC(=O)c2cc(Br)cs2)c1 [Example 241]
1.79	CS(=O)(=O)Nc1cc(Cl)cc(NC(=O)c2cnn(-c3ncccc3OCc3ncc[nH]3)c2)c1 [Example 252]
1.2	CS(=O)(=O)Nc1cc(Cl)cc(NC(=O)c2cnn(-c3ccc(N4CCOCC4=O)cn3)c2)c1 [Example 180]
1.29	Cc1cccnc1-c1csc(C(=O)Nc2cc(Br)cc(NS(C)(=N)=O)c2)c1 (stereo not shown) [Example 122]
1.48	CS(=O)(=O)Nc1cc(F)cc(NC(=O)c2cc(-c3ccccc3O)cs2)c1 [Example 114]
> 10	CS(=O)(=O)Nc1cc(Cl)cc(NC(=O)c2cc3ccc(F)cc3s2)c1 [Example 294]
2.26	CS(=O)(=O)Nc1cc(Cl)cc(NC(=O)c2cc(C(F)(F)F)n(-c3ccc(F)cn3)c2)c1 [Example 267]
4.19	Cc1cccc(C#N)c1-n1cc(C(=O)Nc2cc(Br)cc(NS(C)(=O)=O)c2)cn1 [Example 44]
0.421	CS(=O)(=O)Nc1cc(Cl)cc(NC(=O)c2cc(-c3ncccc3C(F)(F)F)cs2)c1 [Example 223]
2.68	CS(=O)(=O)Nc1cc(Cl)cc(NC(=O)c2cnn(-c3ncc(N4CCOCC4)cc3OCc3cccnc3)c2)c1 [Example 194]
> 10	CS(=O)(=O)Nc1cc(Cl)cc(NC(=O)c2cnn(CCc3ccccc3)c2)c1 [Example 308]
0.911	Cn1cc(C(=O)Nc2cc(Cl)cc(NS(C)(=O)=O)c2)cc1Br [Example 83, 5-bromo-N-(3-chloro-5-(methylsulfonamido)phenyl)-1-methyl-1H-pyrrole-3-carboxamide]
0.373	CS(=O)(=O)Nc1cc(Cl)cc(NC(=O)c2cnn(-c3ccc(C4CCOCC4)cn3)c2)c1 [Example 190]
0.457	CS(=O)(=O)Nc1cc(Br)cc(NC(=O)c2cc(-c3cccnc3)cs2)c1 [Example 78]

EC50 [µM]	SMILES
8.32	CCS(=O)(=O)Nc1cc(F)cc(NC(=O)c2cc(-c3ccccc3)cs2)c1 [Example 74]
> 10	CS(=O)(=O)Nc1cc(Cl)cc(NC(=O)c2cc(C3CCNCC3)cs2)c1 [Example 243]
0.228	Cc1sc(C(=O)Nc2cc(Cl)cc(NS(C)(=O)=O)c2)cc1-c1c(F)cccc1OCc1ccccc1 [Example 240]
0.189	CCS(=O)(=O)Nc1cc(Cl)cc(NC(=O)c2cc(-c3ncc(F)cn3)cs2)c1 [Example 343]
> 10	CC(=O)NC1CC2(C1)CC(n1cc(C(=O)Nc3cc(Cl)cc(NS(C)(=O)=O)c3)cn1)C2 (stereo not shown) [Example 310]
> 10	CS(=O)(=O)Nc1cc(Cl)cc(NC(=O)c2cnn(C3CCOCC3)c2)c1 [Example 131, N-(3-chloro-5-(methylsulfonamido)phenyl)-1-(tetrahydro-2H-pyran-4-yl)-1H-pyrazole-4-carboxamide]
0.201	CS(=O)(=O)Nc1cc(Br)cc(NC(=O)c2cc(-n3cccn3)cs2)c1 [Example 60]
0.421	Cc1cccnc1-c1cc(C(=O)Nc2cc(F)cc(NS(C)(=O)=O)c2)sc1C [Example 333]
0.578	CS(=O)(=O)Nc1cc(Cl)cc(NC(=O)c2cnn(-c3ncccc3OCc3c[nH]cn3)c2)c1 [Example 254]
5.85	CC(C)(C)OC(=O)N1CC2(CC(n3cc(C(=O)Nc4cc(Cl)cc(NS(C)(=O)=O)c4)cn3)C2)C1 [Example 144, tert-butyl 6-(4-((3-chloro-5-(methylsulfonamido)phenyl)carbamoyl)-1H-pyrazol-1-yl)-2-azaspiro[3.3]heptane-2-carboxylate]
0.2	CN(C)C(=O)c1cccnc1-c1csc(C(=O)Nc2cc(Cl)cc(NS(C)(=O)=O)c2)c1 [Example 222]
3.54	CS(=O)(=O)Nc1cc(Cl)cc(NC(=O)c2cnn(-c3ccccc3Oc3cccnc3)c2)c1 [Example 264]
1.06	CS(=O)(=O)Nc1cc(Cl)cc(NC(=O)c2cnn(-c3ncccc3OCc3cn[nH]c3)c2)c1 [Example 206]
> 10	Cc1cccnc1-c1nc(C(=O)Nc2cc(Cl)cc(NS(C)(=O)=O)c2)cn1C [Example 156]
1.41	CS(=O)(=O)Nc1cc(Br)cc(NC(=O)c2cnn(-c3ccccc3C=O)c2)c1 [Example 58]
> 10	CP(C)(=O)c1cccnc1-n1cc(C(=O)Nc2cc(Cl)cc(NS(C)(=O)=O)c2)cn1 [Example 201]
> 10	CS(=O)(=O)Nc1cc(Cl)cc(NC(=O)c2cc3cc(F)ccc3s2)c1 [Example 295]
3.87	CS(=O)(=O)Nc1cc(Cl)cc(NC(=O)c2cccc(-n3cccn3)c2)c1 [Example 117]
0.667	CN(C)C(=O)N1CCN(c2ccc(-n3cc(C(=O)Nc4cc(Cl)cc(NS(C)(=O)=O)c4)cn3)nc2)CC1 [Example 89]
3.61	Cn1cc(C(=O)Nc2cc(Cl)cc(NS(C)(=O)=O)c2)nc1-c1ccccc1 [Example 155, N-(3-chloro-5-(methylsulfonamido)phenyl)-1-methyl-2-phenyl-1H-imidazole-4-carboxamide]

EC50 [µM]	SMILES
2.46	CC(=O)N1CCN(c2cnc(-n3cc(C(=O)Nc4cc(Br)cc(NS(C)(=O)=O)c4)cn3)c(C)c2)CC1 [Example 87]
> 10	CC(=O)N1CCC(n2cc(C(=O)Nc3cc(Cl)cc(NS(C)(=O)=O)c3)cn2)CC1 [Example 317]
> 10	CN1CCN(c2cnc(-n3cc(C(=O)Nc4cc(Cl)cc(NS(C)(=O)=O)c4)cn3)nc2)CC1=O [Example 183]
6.59	Cc1sc(C(=O)Nc2cc(Br)cc(NS(C)(=N)=O)c2)cc1-c1ccccn1 (stereo not shown) [Example 123]
6.55	CS(=O)(=O)Nc1cc(Cl)cc(NC(=O)c2cc3ncccc3s2)c1 [Example 289]
> 10	CS(=O)(=O)Nc1cc(Cl)cc(NC(=O)c2cc3c(C(F)(F)F)cccc3s2)c1 [Example 323]
5.49	CS(=O)(=O)Nc1cc(Br)cc(NC(=O)c2cc(Cc3ccc[nH]3)cs2)c1 [Example 104, 4-((1H-pyrrol-2-yl)methyl)-N-(3-bromo-5-(methylsulfonamido)phenyl)-thiophene-2-carboxamide]
0.851	Cc1sc(C(=O)Nc2cc(Cl)cc(NS(C)(=O)=O)c2)cc1-c1ccccc1 [Example 11]
5.9	CS(=O)(=O)Nc1cc(Cl)cc(NC(=O)c2cc3c(F)c(F)ccc3s2)c1 [Example 324]
2.61	CS(=O)(=O)Nc1cc(Cl)cc(NC(=O)c2cnn(-c3ccccc3-c3cncc(F)c3)c2)c1 [Example 257]
1.15	CS(=O)(=O)Nc1cc(Br)cc(NC(=O)c2cnn(-c3cnccn3)c2)c1 [Example 40]
1.16	CN1CCC(c2ccc(-n3cc(C(=O)Nc4cc(Cl)cc(NS(C)(=O)=O)c4)cn3)nc2)CC1=O (stereo not shown) [Example 266]
4.71	CS(=O)(=O)Nc1cc(Br)cc(NC(=O)c2cnn(-c3ccc(C(F)(F)F)cn3)c2)c1 [Example 43]
1.53	Cc1cnc(-n2cc(C(=O)Nc3cc(Cl)cc(NS(C)(=O)=O)c3)cn2)c(OCc2cnco2)c1 [Example 261]
30	CS(=O)(=O)Nc1cc(Cl)cc(NC(=O)c2nc(-c3ccccc3)c[nH]2)c1 [Example 9]
0.661	CS(=O)(=O)Nc1cc(Cl)cc(NC(=O)c2cnn(-c3ncccc3OCc3ccc(F)cc3)c2)c1 [Example 69]
> 10	CS(=O)(=O)Nc1cc(Cl)cc(NC(=O)c2cnn([C@@H]3CC[C@H]3O)c2)c1 (single isomer, unassigned) [Example 306a]
> 10	CN1CCC(n2cc(C(=O)Nc3cc(Cl)cc(NS(C)(=O)=O)c3)cn2)CC1=O (stereo not shown) [Example 307]

Same assay, conditions: Homo sapiens, HCT-116, circBRIP1, HCT116 cells; ^+ SyBr assay was used; read-out: DHX9 Cellular Target Engagement EC50

EC50 [µM]	SMILES
0.859	CC(C)(O)c1cc(C(=O)Nc2cc(Cl)cc(NS(C)(=O)=O)c2)cn1-c1ccccn1 [Example 650]
0.491	Cc1cc(C(=O)Nc2cc(Cl)cc(NS(C)(=O)=O)c2)cn1-c1ncc(Cl)cn1 [Example 578]
2.28	CS(=O)(=O)Nc1cc(Cl)cc(NC(=O)c2cnn(-c3ncc(F)cc3OCc3cnco3)c2)c1 [Example 719]
0.16	Cn1cc(C(=O)Nc2cc(Cl)cc(NS(C)(=O)=O)c2)cc1-c1ncc(F)cc1-c1cncc(F)c1 [Example 604, N-(3-chloro-5-methanesulfonamidophenyl)-5-{5,5′-difluoro-[3,3′-bipyridin]-2-yl}-1-methylpyrrole-3-carboxamide]
0.291	CS(=O)(=O)Nc1cc(Cl)cc(NC(=O)c2cnn(-c3ncc(N4CC5(COC5)C4)cc3O)c2)c1 [Example 691]
1.15	COc1cnn(-c2csc(C(=O)Nc3cc(Cl)cc(NS(C)(=O)=O)c3)c2)c1 [Example 435]
> 10	CS(=O)(=O)Nc1cc(Cl)cc(NC(=O)c2cc(C(=O)N3CCOCC3)n(-c3ccccn3)c2)c1 [Example 731]
2.8	CS(=O)(=O)Nc1cc(Cl)cc(NC(=O)c2cnn(-c3ncccc3-c3cncc(F)c3)c2)c1 [Example 392]
0.226	Cc1cc(C(=O)Nc2cc(Cl)cc(NS(C)(=O)=O)c2)cn1-c1ncc(C(F)(F)F)cn1 [Example 426]
5.33	Cc1sc(C(=O)Nc2cc(Cl)cc(NS(C)(=O)=O)c2)cc1-c1ncc(F)cc1-c1ccn(C)c(=O)c1 [Example 605]
0.224	Cn1cc(C(=O)Nc2cc(Cl)cc(NS(C)(=O)=O)c2)cc1-c1ccc(C#N)cn1 [Example 570]
4.11	CS(=O)(=O)Nc1cc(Cl)cc(NC(=O)c2cnn(C3CCCC3OCc3ccccc3)c2)c1 (stereo not shown) [Example 424]
